{
  "source": "patent US20250312473A1",
  "about": "“B7H3 ANTIBODY DRUG CONJUGATES” (BEONE MEDICINES I GMBH, priority 2022, published 2025)",
  "key": {"[1]": {"test_system": "H1975 xenografts (B7H3 IHC 3+)", "experiment": "ADC in vivo efficacy study, H1975 xenografts", "design": "species or system BALB/c Nude mice", "conditions": "study (5); 3 mpk (3 mg/kg) i.v. on day 1; day 31"}, "[2]": {"test_system": "NCI-H358:MDA-MB-453-nanoLuc = 10:1", "experiment": "ADC bystander killing, NCI-H358/MDA-MB-453 (nano-Luc) co-culture", "format": "cell-based, human", "conditions": "co-culture 10:1, 3D, 6 days", "procedure": "Method: MDA-MB-453-nanoLuc cell line construction PT67-nanoLuc cells were cultured, then the cell-culture medium (containing the virus (nano-Luc gene)) was collected and filtered. MDA-MB-453 cells were seed in 6-well plates at 1E5 cells/well, and incubated at 37° C., 5% CO2, overnight. The PT67-nanoLuc cell medium and 8 ug/mli polybrene was added. The infection was repeated 3 times, every one day. Then the MDA-MB-453-nanoLuc cells were cultured with the addition of 1 mg/ml Geneticin for 5 days. The MDA-MB-453-nanoLuc cells were collected, and Nano-Glo reagent (Promega: N1120) was added to test the nano-Luc transfection efficiency.\nMethod: ADC Bystander Killing NCI-H358 & MDA-MB-453-nanoLuc (10:1), or MDA-MB-453-nanoLuc cels alone were seeded into 3D-96-well plates (Corning: 4520) at 80 μl/well, and Incubated at 37° C., 5% CO2, overnight. Fresh growth medium containing the varying concentrations of ADCs was added at 40 μl/well. The cells were incubated at 37° C., 5% CO2, 6 days. The 3D-plates were centrifuged at 1500 rpm, 25° C., […], then the supernatant was discarded.\nThe […] cell viability was detected by Nano-Glo reagent (Promega: N1120), 150 μl/well. The 3D-plates were allowed to incubate at room temperature for 10 minutes to stabilize the luminescent signal. Then the plates were analyzed with a microplate reader."}, "[3]": {"test_system": "Capan-1", "experiment": "ADC direct killing, 3D culture, Capan-1", "format": "cell-based, human", "conditions": "6 days", "procedure": "Capan-1 is a cell line with epithelial morphology that was isolated from the pancreas of a person with pancreatic adenocarcinoma, and Capan-1 was purchased from ATCC. The base medium for Capan-1 is ATCC-formulated Iscove's Modified Dulbecco's Medium, Catalog No. 30-2005. To make the complete growth medium, fetal bovine serum was added to the base medium to a final concentration of 20% (Gibco, 10099-141C). The cell line was grown in a humidified 5% CO2 atmosphere at 37° C., and was regularly tested for the presence of mycoplasma with MycoAlert™ PLUS Mycoplasma Detection Kit (Lonza, LT07-710).\n(§1) NCI-H1650, NCI-H1048, MDA-MB-453 (2E3/well) or Capan-1 (4E3/well) cells were seeded into 3D-96-well plates (Corning: 4520) at 80 μl/well and incubated at 37° C., 5% CO2, overnight.\n(§2) Fresh growth medium containing the varying concentrations of ADCs was added at 40 µl/well. The cells were incubated at 37° C., 5% CO2, 6 days.\n(§3) The cell viability was detected by 3D reagent (Promega, G9683), […]. The plates were allowed to incubate at room temperature for 30 minutes to stabilize the luminescent signal. Then the plates were analyzed with a microplate reader."}, "[4]": {"test_system": "NCI-H1650", "experiment": "ADC direct killing, 3D culture, NCI-H1650", "format": "cell-based, human", "conditions": "6 days", "procedure": "The base medium for NCI-H1650 is ATCC-formulated RPMI-1640 Medium, ATCC 30-2001. To make the complete growth medium, fetal bovine serum was added to the base medium to a final concentration of 10% (Gibco, 10099-141C). The cell line was grown in a humidified 5% CO2 atmosphere at 37° C., and was regularly tested for the presence of mycoplasma with MycoAlert™ PLUS Mycoplasma Detection Kit (Lonza, LT07-710).\nas §1, §2, §3"}, "[5]": {"experiment": "HIC methods to evaluate ADC hydrophobicity (DAR8 HIC retention time)", "format": "physicochemical", "conditions": "HIC Method 2", "procedure": "HPLC analysis was carried out under the following measurement conditions: • HPLC system: Waters ACQUITY ARC HPLC System • Detector: measurement wavelength: 280 nm • Column: MABPac HIC-10, 5 μm, 4.6×10 mm (Thermo) • Column temperature: 25° C. • Mobile phase A: 1.5 M ammonium sulfate, 50 mM sodium phosphate, pH 7.0 • Mobile phase B: 50 mM sodium phosphate, pH 7.0 • Gradient program: 20% B—20% B (0 min-1 min), 0% B-0% B (1 min-35 min), 20% B-20% B (35 min-40 min) • Flow rate: 0.5 mL/min\nSample preparation: The sample was diluted with initial mobile phase to 0.5 mg/mL.\nDAR8 HIC retention time (min) is an indication of the relative hydrophobicity of an ADC. ADCs with higher DAR8 HIC retention have a higher hydrophobic property."}, "[6]": {"test_system": "H1650 xenografts (B7H3 IHC 3+)", "experiment": "ADC in vivo efficacy study, H1650 xenografts", "design": "species or system BALB/c Nude mice", "conditions": "for TGI (%) at T 28: day 28; for TGI (%) at T 30: day 30", "procedure": "Female BALB/c Nude mice were subcutaneously implanted with 3×10^6 H1650 cells per 200 μL PBS/matrigel in the right flank. After inoculation, tumor volumes were determined twice weekly in two dimensions using a caliper, and were expressed in mm^3 using the formula: V=0.5(a×b^2) where a and b are the long and short dimensions of the tumor, respectively.\nPartial regression (PR) was defined as tumor volume smaller than 50% of the starting tumor volume on the first day of dosing in three consecutive measurements and complete regression (CR) was defined as tumor volume less than 14 mm^3 in three consecutive measurements. Data is presented as mean tumor volume±standard error of the mean (SEM). Tumor growth inhibition (TGI) is calculated using formula (TGI):\n[formula] • treated t=treated tumor volume at time t • treated t0=treated tumor volume at time 0 • placebo t=placebo tumor volume at time t • placebo t0=placebo tumor volume at time 0"}, "[7]": {"test_system": "NCI-H1048", "experiment": "ADC direct killing, 3D culture, NCI-H1048", "format": "cell-based, human", "conditions": "6 days", "procedure": "The base medium for NCI-H1048 is ATCC-formulated DMEM:F12 Medium Catalog No. 30-2006. To make the complete growth medium, fetal bovine serum was added to the base medium to a final concentration of 10% (Gibco, 10099-141C). The cell line was grown in a humidified 5% CO2 atmosphere at 37° C., and was regularly tested for the presence of mycoplasma with MycoAlert™ PLUS Mycoplasma Detection Kit (Lonza, LT07-710).\nas §1, §2, §3"}},
  "data": [
    {"substance": "ADC3-A: \"ADC3-A is the biosimilar ADC of DS7300a (benchmark)\"; antibody MABX-9001a, average DAR 3.99", "values": [
      {"measurement": "TGI (%) at T 31", "setting": "[1]", "result": 56, "unit": "%"},
      {"measurement": "EC50", "setting": "[2]; Table 11", "result": 9.8, "unit": "nM"},
      {"measurement": "Emax (%) bystander killing", "setting": "[2]; Table 11", "result": 89.1, "unit": "%"},
      {"measurement": "EC50", "setting": "[2]; Table 12", "result": 9.8, "unit": "nM"},
      {"measurement": "Emax (%) bystander killing", "setting": "[2]; Table 12", "result": 89.1, "unit": "%"},
      {"measurement": "EC50", "setting": "[2]; Table 13", "result": 5.4, "unit": "nM"},
      {"measurement": "Emax (%) bystander killing", "setting": "[2]; Table 13", "result": 82.3, "unit": "%"},
      {"measurement": "EC50", "setting": "[2]; Table 14", "result": 13, "unit": "nM"},
      {"measurement": "Emax (%) bystander killing", "setting": "[2]; Table 14", "result": 89.5, "unit": "%"},
      {"measurement": "EC50", "setting": "[3]; Table 6, Capan-1 (Low)", "result": 4, "unit": "nM"},
      {"measurement": "Emax (%)", "setting": "[3]; Table 6, Capan-1 (Low)", "result": 66.7, "unit": "%"},
      {"measurement": "EC50", "setting": "[3]; Table 7, Capan-1 (Low)", "result": 4, "unit": "nM"},
      {"measurement": "Emax (%)", "setting": "[3]; Table 7, Capan-1 (Low)", "result": 66.7, "unit": "%"},
      {"measurement": "EC50", "setting": "[3]; Table 8, Capan-1 (Low)", "result": 1.7, "unit": "nM"},
      {"measurement": "Emax (%)", "setting": "[3]; Table 8, Capan-1 (Low)", "result": 71.4, "unit": "%"},
      {"measurement": "EC50", "setting": "[4]; Table 6, NCI-H1650 (High)", "result": 8.2, "unit": "nM"},
      {"measurement": "Emax (%)", "setting": "[4]; Table 6, NCI-H1650 (High)", "result": 54.2, "unit": "%"},
      {"measurement": "EC50", "setting": "[4]; Table 7, NCI-H1650 (High)", "result": 8.2, "unit": "nM"},
      {"measurement": "Emax (%)", "setting": "[4]; Table 7, NCI-H1650 (High)", "result": 54.2, "unit": "%"},
      {"measurement": "EC50", "setting": "[4]; Table 8, NCI-H1650 (High)", "result": 10.9, "unit": "nM"},
      {"measurement": "Emax (%)", "setting": "[4]; Table 8, NCI-H1650 (High)", "result": 33.1, "unit": "%"},
      {"measurement": "EC50", "setting": "[4]; Table 9, NCI-H1650 (High)", "result": 5.7, "unit": "nM"},
      {"measurement": "Emax (%)", "setting": "[4]; Table 9, NCI-H1650 (High)", "result": 62.0, "unit": "%"},
      {"measurement": "EC50", "setting": "[4]; Table 10, NCI-H1650 (High)", "result": 7.4, "unit": "nM"},
      {"measurement": "Emax (%)", "setting": "[4]; Table 10, NCI-H1650 (High)", "result": 61.1, "unit": "%"},
      {"measurement": "HIC DAR8 RT (min) Method 2", "setting": "[5]", "result": "21.817 (Meth - od 2) min"},
      {"measurement": "TGI (%) at T 28", "setting": "[6]; study (1), 3 mpk (3 mg/kg) i.v. on day 1", "result": 53, "unit": "%"},
      {"measurement": "TGI (%) at T 28", "setting": "[6]; study (1), 10 mpk (10 mg/kg) i.v. on day 1", "result": 86, "unit": "%"},
      {"measurement": "TGI (%) at T 30", "setting": "[6]; study (2), 10 mpk (10 mg/kg) i.v. on day 1", "result": 85, "unit": "%"},
      {"measurement": "TGI (%) at T 30", "setting": "[6]; study (3), 10 mpk (10 mg/kg) i.v. on day 1", "result": 85, "unit": "%"},
      {"measurement": "TGI (%) at T 28", "setting": "[6]; study (4), 10 mpk (10 mg/kg) i.v. on day 1", "result": 70, "unit": "%"},
      {"measurement": "EC50", "setting": "[7]; Table 9, NCI-H1048 (Low)", "result": 1.2, "unit": "nM"},
      {"measurement": "Emax (%)", "setting": "[7]; Table 9, NCI-H1048 (Low)", "result": 98.9, "unit": "%"},
      {"measurement": "EC50", "setting": "[7]; Table 10, NCI-H1048 (Low)", "result": 2.6, "unit": "nM"},
      {"measurement": "Emax (%)", "setting": "[7]; Table 10, NCI-H1048 (Low)", "result": 99.0, "unit": "%"}
    ]}
  ]
}
